Source: patent US8592421B2, “Cyclic bioisosters of purine system derivatives and a pharmaceutical composition based thereon” (priority 2003, dated 2013)

How the values were obtained:
[1] = Electrochemical activity: polarographic reduction on mercury dripping electrode; format: physicochemical; settings: for number of electrons participating in the reduction reaction: calculated with Geirovsky-Ilkovich equation; for i: 2.0% sodium chloride background, 9·10^−4 M; for i / −E1/2: 37° C., forward trace, average for the group of compounds; for −E1/2: vs SCE; for half-wave potential more positive at reverse stroke compared to forward stroke: polarograms of reverse stroke
Description: The study was carried out on a general-purpose polarograph PU-1 with a two-coordinate recorder of the “LKD” type using a three-electrode thermostatically controlled polarographic cell and mercury dripping electrode (MDE) with forced separation of the drop and a dropping period of 0.5 second. A platinum wire was used as an auxiliary electrode and a saturated calomel electrode (SCE) was used as a control electrode.
2.0% solutions of sodium chloride having pH 7.0, 7.2, 7.4, 7.6 were used as a background; the pH values of the background solution were corrected by a solution of sodium hydroxide. The polarographic cell was filled with 5.0 ml of the background solution and for 5 minutes was purged with nitrogen for removing the dissolved oxygen. Then 0.5 ml of solution of the studied substance was added to the background solution, and the polarogram was recorded as a polarographic wave. The concentration of the compounds in the polarographic cell was 9·10^−4 M.
The pH was measured on the pH-meter with an accuracy of +0.05 pH units. The polarographic measurements were carried out at a temperature of 37° C. The recording of polarograms of the investigated materials was effected under conditions of DC current at a scanning rate of the potential 10.0 mV/s with a active scanning stroke from a potential 0 to −0.5 V and sweep retrace from a −0.5 V to 0. The electric-current sensitivity was 5.0 mkA. The scale by the coordinate of the potentials was 50.0 mV/cm. The values of potentials of the half-wave E1/2 of the investigated materials are given with respect to the SCE potential.
The polarogram parameters such as a limiting current ilim and E1/2 were determined by the graphic method. The number of electrons participating in the reaction was calculated on the basis of the analysis of the polarographic wave using the Geirovsky-Ilkovich equation.
The calculation of the number of electrons participating in the reduction reaction was effected using the Geirovsky-Ilkovich equation: […]

[2] = Chronic toxicity of suppositories: indexes of peripheral blood; format: in vivo, rats; set-up: Thrombocytes: unit not given here; settings: male rats, suppositories rectally; for Basophiles / Juveniles: 1 month/2 months (one value given), control 0

O=c1[nH]n([C@@H]2O[C@H](CO)[C@@H](O)[C@H]2O)c(=O)c2ncccc12.[Na] [Compound 1, sodium salt of 7-(β-O-ribofuranosile)pyrido[2,3-1]-6H-pyridazine-5,8-dione sodium salt]
number of electrons participating in the reduction reaction [1]: 3.72
i ([1]; pH 7.0): 0.26 ± 0.04 mkA
−E1/2 ([1]; pH 7.0): 0.11 ± 0.02 V
i ([1]; pH 7.2): 0.31 ± 0.02 mkA
−E1/2 ([1]; pH 7.2): 0.11 ± 0.03 V
i ([1]; pH 7.4): 0.27 ± 0.03 mkA
−E1/2 ([1]; pH 7.4): 0.105 ± 0.01 V
i ([1]; pH 7.6): 0.30 ± 0.01 mkA
−E1/2 ([1]; pH 7.6): 0.105 ± 0.02 V
half-wave potential more positive at reverse stroke compared to forward stroke [1]: 25.0 mV

O=c1[nH][nH]c(=O)c2nccnc12.[Na] [Compound 26, sodium salt of pyrazine[2,3-d]-6H-pyridazine-5,8-dione]
half-wave potential more positive at reverse stroke compared to forward stroke [1]: 27.0 mV

O=c1[nH]n([C@@H]2O[C@H](CO)[C@@H](O)[C@H]2O)c(=O)c2ncnc(O)c12.[Na] [Compound 33, sodium salt of 4-hydroxy-7-(β-D-ribofuranosile)pyrimido[4,5-d]-6H-pyridazine-5,8-dione]
number of electrons participating in the reduction reaction [1]: 3.5
i ([1]; pH 7.0): 0.30 ± 0.05 mkA
−E1/2 ([1]; pH 7.0): 0.08 ± 0.02 V
i ([1]; pH 7.2): 0.26 ± 0.02 mkA
−E1/2 ([1]; pH 7.2): 0.085 ± 0.015 V
i ([1]; pH 7.4): 0.30 ± 0.03 mkA
−E1/2 ([1]; pH 7.4): 0.085 ± 0.02 V
i ([1]; pH 7.6): 0.30 ± 0.02 mkA
−E1/2 ([1]; pH 7.6): 0.09 ± 0.02 V
half-wave potential more positive at reverse stroke compared to forward stroke [1]: 27.0 mV

O=C([O-])c1ncnc2c(=O)n([C@@H]3O[C@H](CO)[C@@H](O)[C@H]3O)[nH]c(=O)c12.[Na+] [Compound 34, sodium salt of 4-carboxy-7-(β-D-ribofuranosile)pyrimido[4,5-D]-6H-pyridazine-5,8-dione]
Basophiles ([2]; 50 mg/kg): 0%
Juveniles ([2]; 50 mg/kg): 0%
Stab neutrophil ([2]; 50 mg/kg, 1 month, control 0.8 ± 0.4): 1.0 ± 0.4%
REE ([2]; 50 mg/kg, 1 month, control 2.2 ± 0.4): 1.8 ± 0.5 mm/h
Reticulocytes ([2]; 50 mg/kg, 1 month, control 2.8%0.3): 2.7 ± 0.1%
Eosinophiles ([2]; 50 mg/kg, 1 month, control 4.0 + 0.3): 3.5 ± 1.0%
Erythrocytes ([2]; 50 mg/kg, 1 month, control 5.6 ± 0.1): 5.6 ± 0.1 mln/mm^3
Hemoglobin ([2]; 50 mg/kg, 1 month, control 10.5 ± 0.2): 10.6 ± 0.1 mmol/L
Leukocyte ([2]; 50 mg/kg, 1 month, control 17.4 ± 1.3): 15.9 ± 1.3 thousand/mm^3
Haematocrite ([2]; 50 mg/kg, 1 month, control 45.9 ± 1.7): 46.9 ± 1.1%
Average volume of erythrocytes ([2]; 50 mg/kg, 1 month, control 81.4 ± 1.7): 81.6 ± 1.9 Mkm^3
Coagulation, time ([2]; 50 mg/kg, 1 month, control 152 ± 10.2): 148 ± 16 s
Thrombocytes ([2]; 50 mg/kg, 1 month, control 707 ± 23): 670 ± 23
REE ([2]; 50 mg/kg, 2 months, control 1.4 ± 0.2): 1.7 ± 0.3 mm/h
Stab neutrophil ([2]; 50 mg/kg, 2 months, control 2.4 ± 0.4): 1.8 ± 0.5%
Reticulocytes ([2]; 50 mg/kg, 2 months, control 2.9 ± 0.2): 2.9 ± 0.2%
Eosinophiles ([2]; 50 mg/kg, 2 months, control 4.4 + 1.2): 4.1 ± 0.4%
Erythrocytes ([2]; 50 mg/kg, 2 months, control 6.1 ± 0.1): 6.1 ± 0.2 mln/mm^3
Hemoglobin ([2]; 50 mg/kg, 2 months, control 11.4 ± 0.2): 11.1 ± 0.2 mmol/L
Leukocyte ([2]; 50 mg/kg, 2 months, control 19.1 ± 1.9): 17.8 ± 1.4 thousand/mm^3
Haematocrite ([2]; 50 mg/kg, 2 months, control 45.9 ± 1.8): 47.5 ± 1.2%
Average volume of erythrocytes ([2]; 50 mg/kg, 2 months, control 74.6 + 1.9): 76.7 ± 1.9 Mkm^3
Coagulation, time ([2]; 50 mg/kg, 2 months, control 316 ± 8): 321 ± 10 s
Thrombocytes ([2]; 50 mg/kg, 2 months, control 593 ± 14): 610 ± 15
Basophiles ([2]; 500 mg/kg): 0%
Juveniles ([2]; 500 mg/kg): 0%
Stab neutrophil ([2]; 500 mg/kg, 1 month, control 0.8 ± 0.4): 0.9 ± 0.2%
REE ([2]; 500 mg/kg, 1 month, control 2.2 ± 0.4): 2.0 ± 0.4 mm/h
Reticulocytes ([2]; 500 mg/kg, 1 month, control 2.8%0.3): 3.2 ± 0.2%
Eosinophiles ([2]; 500 mg/kg, 1 month, control 4.0 + 0.3): 3.0 ± 0.9%
Erythrocytes ([2]; 500 mg/kg, 1 month, control 5.6 ± 0.1): 5.6 ± 0.2 mln/mm^3
Hemoglobin ([2]; 500 mg/kg, 1 month, control 10.5 ± 0.2): 10.6 ± 0.3 mmol/L
Leukocyte ([2]; 500 mg/kg, 1 month, control 17.4 ± 1.3): 16.9 ± 1.0 thousand/mm^3
Haematocrite ([2]; 500 mg/kg, 1 month, control 45.9 ± 1.7): 48.1 ± 1.5%
Average volume of erythrocytes ([2]; 500 mg/kg, 1 month, control 81.4 ± 1.7): 84.1 ± 1.3 Mkm^3
Thrombocytes ([2]; 500 mg/kg, 1 month, control 707 ± 23): 682 ± 24
REE ([2]; 500 mg/kg, 2 months, control 1.4 ± 0.2): 1.8 ± 0.2 mm/h
Stab neutrophil ([2]; 500 mg/kg, 2 months, control 2.4 ± 0.4): 1.4 ± 0.3%
Reticulocytes ([2]; 500 mg/kg, 2 months, control 2.9 ± 0.2): 3.5 ± 0.3%
Eosinophiles ([2]; 500 mg/kg, 2 months, control 4.4 + 1.2): 3.9 ± 1.4%
Erythrocytes ([2]; 500 mg/kg, 2 months, control 6.1 ± 0.1): 6.6 ± 0.1 mln/mm^3
Hemoglobin ([2]; 500 mg/kg, 2 months, control 11.4 ± 0.2): 12.4 ± 0.4 mmol/L
Leukocyte ([2]; 500 mg/kg, 2 months, control 19.1 ± 1.9): 22.1 ± 1.1 thousand/mm^3
Haematocrite ([2]; 500 mg/kg, 2 months, control 45.9 ± 1.8): 53.1 ± 1.6%
Average volume of erythrocytes ([2]; 500 mg/kg, 2 months, control 74.6 + 1.9): 83.8 ± 1.5 Mkm^3
Coagulation, time ([2]; 500 mg/kg, 2 months, control 316 ± 8): 312 ± 9 s
Thrombocytes ([2]; 500 mg/kg, 2 months, control 593 ± 14): 631 ± 26

COP(=O)(OC)C(C)(C)CC(C)=O [Dimesphosphon, dimethyl ester of 1,1-dimethyl-3-oxybuthyl of phosphonic acid, reference compound]
number of electrons participating in the reduction reaction [1]: 1.6
electrons consumed during the reduction ([1]; conclusion from calculated number): 2
i ([1]; pH 7.0): 0.10 ± 0.03 mkA
−E1/2 ([1]; pH 7.0): 0.175 ± 0.01 V
i ([1]; pH 7.2): 0.12 ± 0.03 mkA
−E1/2 ([1]; pH 7.2): 0.17 ± 0.02 V
i ([1]; pH 7.4): 0.11 ± 0.02 mkA
−E1/2 ([1]; pH 7.4): 0.18 ± 0.01 V
i ([1]; pH 7.6): 0.11 ± 0.02 mkA
−E1/2 ([1]; pH 7.6): 0.18 ± 0.01 V
half-wave potential more positive at reverse stroke compared to forward stroke [1]: 50.0 mV

disodium salt of 3-κapõoκcℏ-7-(β-D-ribofuranosile)pyrido[2,3-d]-6H-pyridazine-5,8-dione [Compound 5]
number of electrons participating in the reduction reaction [1]: 3.72
i ([1]; pH 7.0): 0.26 ± 0.04 mkA
−E1/2 ([1]; pH 7.0): 0.11 ± 0.02 V
i ([1]; pH 7.2): 0.31 ± 0.02 mkA
−E1/2 ([1]; pH 7.2): 0.11 ± 0.03 V
i ([1]; pH 7.4): 0.27 ± 0.03 mkA
−E1/2 ([1]; pH 7.4): 0.105 ± 0.01 V
i ([1]; pH 7.6): 0.30 ± 0.01 mkA
−E1/2 ([1]; pH 7.6): 0.105 ± 0.02 V
half-wave potential more positive at reverse stroke compared to forward stroke [1]: 25.0 mV

potassium salt of 3-bromine-pyrazine[2,3-Cl]-6H-pyridazine-5,8-dione [Compound 27]
number of electrons participating in the reduction reaction [1]: 3.72
i ([1]; pH 7.0): 0.32 ± 0.03 mkA
−E1/2 ([1]; pH 7.0): 0.16 ± 0.02 V
i ([1]; pH 7.2): 0.33 ± 0.04 mkA
−E1/2 ([1]; pH 7.2): 0.19 ± 0.02 V
i ([1]; pH 7.4): 0.34 ± 0.03 mkA
−E1/2 ([1]; pH 7.4): 0.175 ± 0.01 V
i ([1]; pH 7.6): 0.34 ± 0.02 mkA
−E1/2 ([1]; pH 7.6): 0.16 ± 0.015 V
half-wave potential more positive at reverse stroke compared to forward stroke [1]: 20.0 mV
